In patent US20240228542A1, “LYTIC DOMAIN FUSION CONSTRUCTS, CHECKPOINT INHIBITORS, AND METHODS OF MAKING AND USING SAME” (A28 Therapeutics Inc., priority 2020, published 2024):

What was measured:
[1] = tested on: AN3-CA; assay: Cytotoxicity in AN3-CA endometrial cancer cells; format: cell-based; conditions: AN3-CA endometrial cancer cell line; read-out: IC50 in Human Cancer Cell Lines
Experimental: MDA-MB-435S.luc cells were grown in Leibovitz's L 15 medium, 10% fetal bovine serum, 0.01 mg/ml bovine insulin, 100 IU/ml penicillin, 100 microg/ml streptomycin. The cells were cultured in tight closed flasks. The incubations were conducted using 96 well plates at 10,000 cells per well. Cells were typically seeded into 96 well plates and media was replaced after 48 hours of incubation. Each assay was conducted at increasing concentrations of 0, 0.001, 0.01, 0.05, 0.1, 0.5, 1, 2, 5, 10 and 100 micromolar doses of lytic peptide-binding domain conjugate. Each lytic peptide-binding domain conjugate provided in lyophilized form and was freshly dissolved in saline and added to cells. The duration of incubation was typically 24 h, and cell viability assays were conducted using formazan conversion assays (MTT assay). Controls contained saline or 0.1% triton as reference for 0 and 100% cell death, respectively.
To ascertain the IC50 of various fusion constructs on different human cancer cell lines compared to cisplatinum, IC50 of fusion constructs were evaluated as in Table 3.

[2] = tested on: MDA-MB-435 cells; assay: Fluorescence microscopy of MDA-MB-435 cells; format: cell-based, human; conditions: 10 μM, 5 minutes exposure
Experimental: In brief, human melanoma cells (MDA-MB-435, passage #252) were seeded onto culture dishes. The following markers were introduced prior to adding EP-100; DRAQ5™(Alexis Corporation)—blue—was used for staining of the nucleus and Mito Tracker® Red CMXRos (M7512) (Molecular Probes, Inc. OR) were applied for visualizing intact mitochondria. Cell membranes were stained with wheat germ alexa fluor green conjugates (Molecular Probes, Inc. OR).
Cells were loaded first with Mitotracker dye, according to the manufacturer's recommendation. Phor 18-LHRH (338613) reconstituted in saline was added at a final concentration of 10 μM and incubated for 5-10 minutes. Culture dishes with saline only served as controls. The supernatant was removed, and the remaining cells prepared for fluorescence microscopy imaging.

[3] = tested on: ID8; assay: Cytotoxicity in ID8 murine ovarian cancer cells (24 h); format: cell-based; conditions: ID8, 24 h; read-out: In vitro activity (IC50)
Experimental: (§1) Murine ovarian cancer cell lines (ID8, IG10, IF5, and 2Cl2) were grown in RPMI 1640 media with 10% Fetal Bovine Serum. Cells were typically seeded (3000 cells per well) into 96 well plates and media was replaced after 48 hours of incubation. […] Phor18-LHRH was provided in lyophilized form was dissolved in saline and added to cells. The duration of incubation was 24 h at 37° C. Cell viability was assessed after 24 hours using a luminometric assays (Promega, CellTiter-0Glo 2.0, G9243). Controls contained saline or 0.1% triton as reference for 0 and 100% cell death, respectively.
(§2) Data were processed and analyzed using GraphPad Prism version 7.00 for Windows (GraphPad Software, San Diego California). Statistical analysis for significance was determined by a two-tailed Student's T-test. Each study was conducted to achieve an […] of at least 6.
(§3) In vitro activities were expressed as IC50 values for each cell line, time point and compound tested that were calculated using the Hill equation (Graph Pad Prizm software).

[4] = tested on: IF5; assay: Cytotoxicity in IF5 murine ovarian cancer cells (24 h); format: cell-based; conditions: IF5, 24 h; read-out: In vitro activity (IC50)
Experimental: as §1, §2, §3

[5] = tested on: 2C12; assay: Cytotoxicity in 2C12 murine ovarian cancer cells (24 h); format: cell-based; conditions: 2C12, 24 h; read-out: In vitro activity (IC50)
Experimental: as §1, §2, §3

[6] = tested on: 242; assay: Cytotoxicity in cell line 242 (Table 7); format: cell-based, murine; conditions: 242, 24 h; read-out: In vitro activity (IC50)
[7] = tested on: murine ovarian cancer cells; assay: EP-100 cytotoxicity and LHRH-R specificity in murine ovarian cancer cells; format: cell-based; conditions: ID8 cells, EP-100, 24 hr
From the text: To identify the direct effects of EP-100 on cancer cells, murine ovarian cancer cell lines were used for in vitro experiments. […] The level of expression of LHRH-R in murine ovarian cancer cells using RT-PCR and Western blot analysis. […] Indeed, LHRH-R was expressed mainly on the membrane of cancer cells (FIGS. 14D and 14E). Human SKOV3ipl ovarian cancer cells and immortalized murine 3T3 fibroblasts were used as negative controls.
To determine whether the antitumor EP-100 efficacy was specific to LHRH-R expression, we silenced LHRH-R using siRNA (FIG. 15A). […].

[8] = tested on: immune cells in tumor; assay: Immune cell profiling (FACS) of ID8 tumors; format: in vivo, C57BL/6 mice
Experimental: Immune Profiling Assay—Immunophenotypic analyses of splenocytes and single cell suspensions from tumors were assessed by flow cytometry. Abs to stain for MDSCs were CD11b-APC (clone M1/70; BD Biosciences), Ly6G-FITC (clone 1A8; BD Biosciences) and Ly6C-PE (clone AL-21; BD Biosciences). For T-cell activation markers, cells were stained with Ab specific for CD4-PE-Cy7 (clone RM4-5; BD Biosciences), CD8-PE-Cy7 (clone 53-6.7; BD Biosciences), CD62L-PE (clone MEL-14; BD Biosciences) and CD44-FITC (clone IM7; Biolegend). Cells were incubated on ice for 30 min, washed and fixed in phosphate buffered saline (PBS) containing 1% formalin for flow cytometric analysis on an LSRII flow cytometer (BD Biosciences).
Immune cell profiling was conducted on ascites (N=3) and tumor tissue (N=3) by processing the samples by the following method and analyzed through Fluorescent Activated Cell Sorting (FACS), see Table 8. Cells were incubated for 30 minutes on ice, washed and fixed in phosphate buffered saline containing 1% formalin for flow cytometric analysis on an LSRII flow cytometer.

For “KFAKFAKKFAKFAKKFAKQHWSYGLRPG [Phor18-LHRH]”, the IC50 [1] was 3800 ± 80 nM, the “plasma membrane, fluorescence microscopy” value [2] was “disintegration of the plasma membrane” and the IC50 [3] was 1370 nM. The IC50 [4] was 1010 nM, the IC50 [5] was 1020 nM and the IC50 [6] was 1380 nM. For the same sequence, the “viability of cells in which LHRH-R was silenced (siRNA)” value [7] was “remained viable”, the “increase of CD8+ T/Treg ratio” value ([8]; tumor (tumor and ascites)) was 8 fold and the “Regulatory T cells (Treg)” value ([8]; tumor, % of CD45+ cells, controls 1.14±0.09%) was 0.95±0.15%. The “Monocytic myeloid suppressor cells (mMDSC)” value ([8]; tumor, % of CD45+ cells, controls 1.5±0.006%) was 1.015±0.15%, the Macrophages ([8]; tumor, % of CD45+ cells, controls 1.6±0.05%) was 10.1±0.13% and the “Dendritic cells (DC)” value ([8]; tumor, % of CD45+ cells, controls 1.88±0.03%) was 5.12±0.34%. For the same sequence, the “CD8+ T cells” value ([8]; tumor, % of CD45+ cells, controls 2.6±0.4%) was 15.5±0.8%, the “Natural killer (NK) cells” value ([8]; tumor, % of CD45+ cells, controls 3.76±[…]) was 10.67±1.4% and the B cells ([8]; tumor, % of CD45+ cells, controls 12.14±0.9%) was 10.1±2.4%. For the same sequence, the “CD45+ cell fraction of live cells” value ([8]; tumor, Mean±SEM, controls 8.16±[…]) was 26.1±5.2% and the “ratio of CD8+ T cells to regulatory T cells” value ([8]; tumor, controls 2.27±0.26) was 15.5±2.5.
